# Reference: article PMC5751233, “Characterization of the Asiatic Acid Glucosyltransferase, UGT73AH1, Involved in Asiaticoside Biosynthesis in Centella asiatica (L.) Urban” (International Journal of Molecular Sciences, 2017)
# Molecular target: T1, UGT73AH1 (Centella asiatica, UniProt A0A2I7M6C4)
# T1 construct: full-length ORF with stop codon, untagged, 501 residues; expressed in E. coli BL21 (DE3), soluble total protein extract
# T1 sequence (A0A2I7M6C4 1-501): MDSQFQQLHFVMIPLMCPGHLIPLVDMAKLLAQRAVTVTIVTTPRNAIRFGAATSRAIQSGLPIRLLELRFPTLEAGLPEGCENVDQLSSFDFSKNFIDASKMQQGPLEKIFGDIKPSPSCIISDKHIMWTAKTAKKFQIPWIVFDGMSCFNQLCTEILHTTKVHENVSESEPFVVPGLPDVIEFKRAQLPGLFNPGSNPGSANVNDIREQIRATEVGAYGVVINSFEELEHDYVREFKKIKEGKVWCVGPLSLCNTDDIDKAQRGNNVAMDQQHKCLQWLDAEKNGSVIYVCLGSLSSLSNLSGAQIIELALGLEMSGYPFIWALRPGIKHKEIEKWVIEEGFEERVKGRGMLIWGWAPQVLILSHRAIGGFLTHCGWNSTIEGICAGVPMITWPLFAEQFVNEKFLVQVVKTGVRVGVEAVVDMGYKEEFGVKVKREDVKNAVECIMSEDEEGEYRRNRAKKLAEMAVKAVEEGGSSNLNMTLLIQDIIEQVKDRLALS
# Experiment: UPLC-QTOF/MS detection of monoglucoside product
# Format: biochemical
# Conditions: 5 mM UDP-glucose, 0.5 mM asiatic acid, 50 mM Tris-HCl pH 8.5, 35 °C, 4 h; E. coli total protein extract; boiled-protein control
compound,measurement,value
C[C@H]1[C@H](C)CC[C@]2(C(=O)O)CC[C@]3(C)C(=CC[C@@H]4[C@@]5(C)C[C@@H](O)[C@H](O)[C@@](C)(CO)[C@@H]5CC[C@]43C)[C@H]12 [asiatic acid],UPLC-QTOF/MS detection of monoglucoside product,our results show that UGT73AH1 catalyzes the glycosylation of asiatic acid
